Experimental data published in the METLIN SMRT retention time set (Domingo-Almenara et al. 2019).

Experiment: gradient 5% acetonitrile 3 min, to 50% in 2 min, to 85% in 15 min, held 3 min, 100 µL/min
Settings: column: Zorbax Extend-C18 2.1 x 50 mm; eluents: water / acetonitrile, 0.1% formic acid
Outline: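 Values are retention times taken from adduct peaks that software picked and an analyst inspected. The pure standards were run as mixtures of ~100 molecules on HPLC linked to a quadrupole time-of-flight mass spectrometer, in positive and negative ionization mode. A Zorbax Extend-C18 column (2.1 × 50 mm, 1.8 μm) was used at 100 μL/min with water and acetonitrile, each including 0.1% formic acid.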

RP-LC retention time	SMILES
1040 s	CCCn1c(=O)sc2cc(S(=O)(=O)N3CCC(C(=O)Nc4ccc(Cl)cc4)CC3)ccc21
861 s	CCCn1cc(S(=O)(=O)Nc2cccc(F)c2C)c2cccnc21
632 s	CN(C)C/C=C/C(=O)Nc1cc2c(Nc3ccc(F)c(Cl)c3)ncnc2cc1O[C@H]1CCOC1
560 s	Cn1c(=O)c(N2CCN(C(=O)c3ccc(Cl)cc3)CC2)nc2ccncc21
820 s	COc1cccc(N2CC(C(=O)Nc3nnc(SCc4ccccc4)s3)CC2=O)c1 (configuration not stated)
650 s	CC(=O)N1CCc2cc(S(=O)(=O)NCCn3nc(-c4cccs4)ccc3=O)ccc21
567 s	Cc1cc(N2CCCC2)n2ncnc2n1
1260 s	Cc1cc(Cl)ccc1NS(=O)(=O)c1cc(-c2cc(C(F)(F)F)on2)sc1C
575 s	CC1CCN(C(=O)c2cc3c(s2)CCC(C(=O)N2CCN(C)CC2)C3)CC1 (configuration not stated)
750 s	CC(=O)N1CCc2cc(N3CC(C(=O)NCc4ccc(C)c(C)c4)CC3=O)ccc21 (configuration not stated)
545 s	Cc1cc(N(C)C)nc(NCCNC(=O)C2CCCC2)n1
772 s	CCn1c(C)c(CN2CCC(C(=O)NCc3cccc(Cl)c3)CC2)c2ccccc21
582 s	CCOC(=O)Nc1ccc(S(=O)(=O)N2CCC(c3nc4ccccc4[nH]3)CC2)cc1
866 s	CC(C)n1c(N2CCCN(C(=O)c3ccc(Br)o3)CC2)cc(=O)n(C(C)C)c1=O
695 s	COc1ccc(NC(=O)CSc2nc(N3CCCCC3)nc3ccccc23)cc1
778 s	O=C(CSc1nnc2sc3ccccc3n12)c1ccc(F)cc1
656 s	Cc1cccc(-c2nc3ccccn3c2NC(=O)NCc2ccccc2)c1
1010 s	CCCCCNC(=O)c1cnn2c(-c3ccc4c(c3)OCO4)ccnc12
793 s	Cc1cc(N(C)C)nc(N2CCN(S(=O)(=O)c3cc(C)c(C)cc3C)CC2)n1
703 s	Cc1cc(S(=O)(=O)N2CCc3c(c(-c4nnc(-c5ccccc5)o4)nn3C)C2)ccc1F
1110 s	O=S(=O)(c1ccc(F)cc1F)N1CCc2nc(-c3ccc(F)cc3)ncc2C1

Second part, the molecule before the results:

SMILES	RP-LC retention time
COc1cccc(CN2CCC3(CC2)NCCc2c3[nH]c3ccccc23)c1	583 s
Cc1nnc2c(=O)n(CC(=O)N3CCN(c4ccccn4)CC3)c3cccnc3n12	548 s
COc1ccc(OC)c(C2CN(C(=O)c3ccc4c(c3)OCO4)CC2C(=O)N2CCCC2)c1 (configuration not stated)	723 s
CCCNc1cc(N2CCC(CCC(=O)NCc3ccccc3F)CC2)ncn1	680 s
COc1cccc(N2CCN(C(=O)c3cn(-c4ccc(NC(C)=O)cn4)cn3)CC2)c1	680 s
Cc1cc(C)nc(NC(=O)NCCCSc2ccccn2)n1	671 s
Cc1cccc(-c2csc3c(=O)n(Cc4ccccn4)cnc23)c1	877 s
CCC(C)NC(=O)N1CC(Oc2ccc(-c3noc(COC)n3)cc2)C1 (configuration not stated)	794 s
COc1cc(C(=O)N2CCN(c3cc(-c4ccc(Cl)cc4)[nH]n3)CC2)cc(OC)c1OC	827 s
CNC(=O)C1CCCN(c2nc3ncn(CC(=O)Nc4ccccc4C(=O)OC)c(=O)c3s2)C1 (configuration not stated)	649 s
Cn1c(=O)n(CCN2CCCCC2)c(=O)c2c1nc1n2CCCN1c1ccc(Br)cc1	678 s
O=C(NCc1csc(C2CCN(C(=O)Cc3ccccc3Cl)CC2)n1)C1CCC1	753 s
CSc1nnc(-c2nn(C)c3c2CN(C(=O)c2ccc(F)c(F)c2)CC3)n1C	720 s
COc1ccc(NC(=O)c2csc3c2CCCC3)cc1	894 s
Cc1ccc(-c2nc3ccccn3c2NC(=O)NCc2ccco2)cc1	629 s
CCCn1ccc2sc(C)c(C(=O)N3CCN(c4ccc(OC)cc4)CC3)c2c1=O	762 s
O=S(=O)(c1ccc2c(c1)CCC2)N1CCC(CN2CCCCCC2)CC1	708 s
CC(=O)c1cccc(NC2=NS(=O)(=O)c3ccccc32)c1	744 s
CCc1ccc(NC(=O)NCC(c2cccnc2)c2c[nH]c3ccccc23)cc1 (configuration not stated)	710 s
O=C(O)C1CCCCC1C(=O)NCCc1csc(-c2cccnc2)n1 (configuration not stated)	593 s
CCCCNC(=O)Cc1nnc(-c2ccc(OC)cc2)o1	736 s
CCOC(=O)c1sc2ncnc(N3CCN(c4ccccc4OC)CC3)c2c1C	1200 s
CCCCCCNC(=O)C1CCCN(c2ncc(-c3ccccc3)cn2)C1 (configuration not stated)	1150 s

SMILES	RP-LC retention time
Cc1ccc(Cl)cc1N1CCN(c2ccc3cc(S(=O)(=O)N4CCCCC4C)ccc3n2)CC1 (configuration not stated)	1420 s
O=C(Cn1cccc1-c1nc(-c2ccc(Cl)cc2)cs1)N1CCOCC1	1040 s
Fc1ccc(-c2cc(CN3CCCC3)[nH]n2)cc1	594 s
Cc1nn(C(C)C(=O)NCCc2c[nH]c3ccccc23)c(=O)c2c(C)n(-c3ccccc3)nc12 (configuration not stated)	904 s
Cc1nnc(-c2cc(S(=O)(=O)NC3CCCCCCC3)c(C)n2C)o1	897 s
CN(C(=O)Cn1c(=O)oc2ccc(C(=O)N3CCCC3)cc21)C1CCCCC1	761 s
COc1ccccc1-c1noc(C2CCCN2C(=O)CSc2ccncc2)n1 (configuration not stated)	611 s
CCCS(=O)(=O)c1ccc(N2CCN(c3ccccc3OC)CC2)nn1	809 s
CCc1nn(CC)c(=O)c2cc(S(=O)(=O)NCc3ccc(F)cc3Cl)cn12	1020 s
COc1ccc(-n2nnc(-c3nsc(Nc4cccc(Cl)c4)n3)c2C)cc1	1080 s
CCCn1cc(CCNC(=O)Nc2ccc(F)cc2F)c2cccnc21	806 s
CCC(C)N1C(=O)CN(C2CCCCCC2)C(=O)C1c1ccccc1F (configuration not stated)	1020 s
O=C(NCc1ccc(F)cc1)C1CCCN(c2ncnc3c2oc2ccccc23)C1 (configuration not stated)	746 s
Cc1cc(C(=O)N2CCN(c3ccc(-c4cccs4)nn3)CC2)no1	659 s
CCN(c1ccccc1)S(=O)(=O)c1ccc2c(c1)N(C(C)=O)CCCS2	937 s
Cc1cc(C)n2nc(SCC(=O)Nc3cccc(Cl)c3)nc2n1	789 s
COCc1cc(=O)n(Cc2ncc(C)c(OC)c2C)c(N2CCCC2)n1	608 s
COc1ccc(NC(=O)CN2CCc3[nH]c4c(C)c(Cl)ccc4c(=O)c3C2)c(OC)c1	656 s
N#Cc1cccc(Cn2cc(S(=O)(=O)N3CCCC3)ccc2=O)c1	764 s
O=C(NCC1CCCO1)C1CCN(c2ccc(=O)n(-c3cccc(Cl)c3)n2)CC1 (configuration not stated)	721 s
CCOC(=O)CCC(=O)Nc1nnc2n1CCS2	558 s
CCN(CC)c1ccc(Nc2nc(-c3ccc(F)c(C)c3)cs2)cc1	834 s
O=C1NCCCCCN(C(=O)Nc2ccccc2F)[C@H]2CCCC[C@@H]12	815 s
